This assay relates to Plasmodium berghei. Nature of the assay: Luciferase/luciferin-expressing antifolate-resistant parasites were used to infect a culture of HepG2 cells that were pre-incubated with compounds. Infected hepatocytes emit light due to the luciferase reaction. Assay results are presented as the percent inhibition of light emission compared to control. […]. The class given is functional. The settings on record: sporozoite; for IC90: read-out: LUCIFERASE INFECTION ASSAY - IC90.

The mark [1] stands for this setting: read-out: LUCIFERASE INFECTION ASSAY - IC50.

SMILES strings stand for the structures. A value given as a limit tells only on which side of the number the result lay.

As a reminder, the IC50 is the point on the concentration scale where inhibition reaches its midpoint. By IC90 is commonly meant the point of the concentration-response curve where the effect stands at 90%. For `COc1ccc(-c2cnc3cnc(-c4ccccc4C)cn23)cn1`, the IC90 is 4.17 µM. Moreover, the IC50 under setting [1] was 2.21 µM.
As to `O=C(Nc1nc(C23CC4CC(CC(C4)C2)C3)cs1)c1cnccn1`, the IC90 was greater than 10 µM. Besides, the half-maximal inhibitory concentration (IC50) (PBLUC_HILL_SLOPE 9.13, PBLUC_R_SQUARED 0.249, read-out: LUCIFERASE INFECTION ASSAY - IC50) stood at 8.02 µM.
On to `CN(C)c1ccc(NC(=O)C2(C)CCCCN2C)cc1` (configuration not stated), for which the IC90 was greater than 12 µM. The IC50 (PBLUC_HILL_SLOPE 1.77, PBLUC_R_SQUARED 0.752, read-out: LUCIFERASE INFECTION ASSAY - IC50) came out at 6.68 µM.
As to `Cc1nc2c(C(N)=O)ncn2c(C)c1CCC(=O)Nc1ccc2oc3ccccc3c2c1`, the IC90 stood at 9.76 µM. Under “PBLUC_HILL_SLOPE 15.8, PBLUC_R_SQUARED 0.091, read-out: LUCIFERASE INFECTION ASSAY - IC50”, the IC50 was found to be 9.25 µM.
As for `COc1cc(-c2cnc3cnc(-c4cccc(NS(C)(=O)=O)c4)cn23)cc(OC)c1OC`, the IC90 worked out at 6.6 µM. Besides, for the setting “HEPG2TOX_HILL_SLOPE 7.03, HEPG2TOX_R_SQUARED 0.532, PBLUC_HILL_SLOPE 3.63, PBLUC_R_SQUARED 0.378, read-out: LUCIFERASE INFECTION ASSAY - IC50”, the IC50 worked out at 3.61 µM.
As for `Cc1nc(-c2ccc(CCNc3ncnc4sccc34)cc2)cs1`, the IC90 is greater than 10 µM. For the same compound, for the setting “HEPG2TOX_HILL_SLOPE 0.209, HEPG2TOX_R_SQUARED 0.388, PBLUC_HILL_SLOPE 0.293, PBLUC_R_SQUARED 0.513, read-out: LUCIFERASE INFECTION ASSAY - IC50”, the IC50 was determined as 0.0119 µM.
With `CN(C)C(=O)c1ccc(-c2cc3cnc(Nc4cccc(O)c4)cc3n2Cc2ccccc2)cc1`, the IC90 is 9.88 µM. The IC50 (HEPG2TOX_HILL_SLOPE 12, HEPG2TOX_R_SQUARED 0.529, PBLUC_HILL_SLOPE 3.22, PBLUC_R_SQUARED 0.748, read-out: LUCIFERASE INFECTION ASSAY - IC50) was found to be 4.99 µM.
For the compound `COc1ccc(-c2cnc3ccc(-c4cccc(OC(F)(F)F)c4)nn23)cc1OC`, the IC90 turned out to be 1.23 µM. Moreover, the IC50 (FFLUC_HILL_SLOPE 21.1, FFLUC_R_SQUARED 0.421, PBLUC_HILL_SLOPE 16.1, PBLUC_R_SQUARED 0.675, read-out: LUCIFERASE INFECTION ASSAY - IC50) stood at 1.08 µM.
As to `Cc1ccc(NS(=O)(=O)c2ccc(C(=O)Nc3ncccc3O)cc2)cc1`, the IC90 worked out at 0.462 µM. The IC50 (FFLUC_HILL_SLOPE 0.564, FFLUC_R_SQUARED 0.118, HEPG2TOX_HILL_SLOPE 3.99, HEPG2TOX_R_SQUARED 0.784, PBLUC_HILL_SLOPE 9.26, PBLUC_R_SQUARED 0.767, read-out: LUCIFERASE INFECTION ASSAY - IC50) was 0.364 µM.
For `Cc1ccccc1OCCCn1c(CCCNC(=O)c2ccco2)nc2ccccc21`, the IC90 is greater than 10 µM. Moreover, the IC50 under setting [1] was greater than 10 µM.
`CC1(C)CC(=O)C2Sc3ccccc3N=C2C1` (configuration not stated): the IC90 was greater than 13.5 µM. For the setting “PBLUC_HILL_SLOPE 1.5, PBLUC_R_SQUARED 0.224, read-out: LUCIFERASE INFECTION ASSAY - IC50”, the IC50 turned out to be 10.8 µM.
As for `COc1cc(OC)cc(C(=O)NNC(=O)CCC(=O)c2ccc(Cl)s2)c1`, the IC90 was greater than 10 µM. Under setting [1], the IC50 is greater than 10 µM.
`CCCCCCCCC/C(=N\O)c1ccccn1`: the IC90 was determined as 11.9 µM. The IC50 (HEPG2TOX_HILL_SLOPE 8.74, HEPG2TOX_R_SQUARED 0.63, PBLUC_HILL_SLOPE 40.5, PBLUC_R_SQUARED 0.34, read-out: LUCIFERASE INFECTION ASSAY - IC50) came out at 11.3 µM.
In the case of `Cc1cc(/C=N/Nc2ccc(Cl)nn2)c(C)n1-c1ccccc1Cl`, the IC90 was determined as 9.4 µM. Besides, the IC50 (FFLUC_HILL_SLOPE 16.1, FFLUC_R_SQUARED 0.664, PBLUC_HILL_SLOPE 12.5, PBLUC_R_SQUARED 0.559, read-out: LUCIFERASE INFECTION ASSAY - IC50) is 7.88 µM.
On to `N#CC(Cc1cccc([N+](=O)[O-])c1)(c1ccccc1)c1ccccc1`, for which the IC90 was greater than 10 µM. The IC50 (HEPG2TOX_HILL_SLOPE 5.53, HEPG2TOX_R_SQUARED 0.223, PBLUC_HILL_SLOPE 1.93, PBLUC_R_SQUARED 0.0999, read-out: LUCIFERASE INFECTION ASSAY - IC50) was greater than 10 µM.
For the compound `Clc1ccccc1-c1cnc2cnc(-c3cnn(Cc4ccccc4)c3)cn12`, the IC90 is greater than 8.55 µM. The IC50 under setting [1] is greater than 8.55 µM.
In the case of `CC(=O)N(C)c1cccc(-c2cc3c(Nc4cccc(C(C)C)c4)nccc3n2C)c1`, the IC90 was 3.76 µM. For the same compound, the IC50 (PBLUC_HILL_SLOPE 18.8, PBLUC_R_SQUARED 0.545, read-out: LUCIFERASE INFECTION ASSAY - IC50) is 3.34 µM.
For `NC(=O)c1ccc(-c2cc(-c3ccc(F)c(Cl)c3)cnc2N)cc1`, the IC90 is 4.41 µM. The IC50 (PBLUC_HILL_SLOPE 12.5, PBLUC_R_SQUARED 0.242, read-out: LUCIFERASE INFECTION ASSAY - IC50) stood at 3.7 µM.
In the case of `CCCCNC(=O)c1c(NC(=O)c2cc(OC)cc(OC)c2)nc2ccccn12`, the IC90 amounted to 5.61 µM. Moreover, the IC50 (FFLUC_HILL_SLOPE 9.35, FFLUC_R_SQUARED 0.0665, PBLUC_HILL_SLOPE 7.48, PBLUC_R_SQUARED 0.629, read-out: LUCIFERASE INFECTION ASSAY - IC50) was found to be 4.18 µM.
As to `CC(=O)c1cccc(-c2cnc3ccc(-c4cccc(C(N)=O)c4)nn23)c1`, the IC90 stood at 0.628 µM. Besides, under “HEPG2TOX_HILL_SLOPE 1.55, HEPG2TOX_R_SQUARED 0.943, PBLUC_HILL_SLOPE 2.62, PBLUC_R_SQUARED 0.854, read-out: LUCIFERASE INFECTION ASSAY - IC50”, the IC50 was 0.271 µM.
For `CN(Cc1ccc(Br)s1)c1ncccc1C(N)=O`, the IC90 was greater than 2 µM. The IC50 under setting [1] was greater than 2 µM.
On to `O=C(Nc1cccc(CNc2ccnc3cc(Cl)ccc23)c1)C1CC1`, for which the concentration for an effect of 90% (IC90) was greater than 10 µM. For the same compound, for the setting “PBLUC_HILL_SLOPE 2.98, PBLUC_R_SQUARED 0.123, read-out: LUCIFERASE INFECTION ASSAY - IC50”, the IC50 was found to be 5.8 µM.
`CCCCOc1ccc(Nc2nc(C(N)c3ccccc3Cl)cs2)nn1` (configuration not stated): the IC90 stood at 8.44 µM. Besides, the IC50 (PBLUC_HILL_SLOPE 6.47, PBLUC_R_SQUARED 0.485, read-out: LUCIFERASE INFECTION ASSAY - IC50) was 6.01 µM.
As to `CCc1ccc(C(=O)Nc2cccc(NC(=O)c3ccccc3C)c2)cc1`, the IC90 was found to be 1.14 µM. Also, the IC50 (HEPG2TOX_HILL_SLOPE 1.42, HEPG2TOX_R_SQUARED 0.919, PBLUC_HILL_SLOPE 4.98, PBLUC_R_SQUARED 0.845, read-out: LUCIFERASE INFECTION ASSAY - IC50) was 0.735 µM.
Regarding `Cc1ccc(Sc2ccc(NC(=O)C3CC(=O)N(C4CC4)C3)cc2)c(C)c1` (configuration not stated), the IC90 was greater than 10 µM. The IC50 under setting [1] was greater than 10 µM.
Regarding `CC(=O)Nc1cccc(Nc2cc3c(cn2)ncn3CC2CC2)c1`, the IC90 was greater than 10 µM. The IC50 (HEPG2TOX_HILL_SLOPE 2.64, HEPG2TOX_R_SQUARED 0.966, PBLUC_HILL_SLOPE 2.21, PBLUC_R_SQUARED 0.507, read-out: LUCIFERASE INFECTION ASSAY - IC50) turned out to be 6.65 µM.
For the compound `O=C(Nc1ccc(OC(F)(F)F)cc1)Nc1cc(-c2ccccc2)n[nH]1`, the IC90 is 4.02 µM. Moreover, the IC50 (PBLUC_HILL_SLOPE 11.1, PBLUC_R_SQUARED 0.558, read-out: LUCIFERASE INFECTION ASSAY - IC50) turned out to be 3.3 µM.
With `CCn1c2ccccc2c2cc(NC(=O)COC(=O)C3CSC4(c5ccc(F)cc5)CCC(=O)N34)ccc21` (configuration not stated), the IC90 is greater than 10 µM. In addition, under “HEPG2TOX_HILL_SLOPE 7.81, HEPG2TOX_R_SQUARED 0.779, read-out: LUCIFERASE INFECTION ASSAY - IC50”, the IC50 is greater than 10 µM.
Regarding `O=C(Nc1cccc(Cl)c1)Nc1ccc2nc(Cc3ccccc3)nn2c1`, the IC90 was determined as 3.2 µM. The IC50 under setting [1] worked out at 2.79 µM.
Regarding `NNc1nc(C(F)(F)F)nc2c1cnn2-c1ccccc1`, the IC90 came to 5.03 µM. In addition, the IC50 (PBLUC_HILL_SLOPE 6.68, PBLUC_R_SQUARED 0.4, read-out: LUCIFERASE INFECTION ASSAY - IC50) was 3.62 µM.
As for `CCc1nn2c(=O)cc(CSc3nccc(C)n3)[nH]c2c1-c1ccc(F)cc1`, the IC90 is greater than 8.34 µM. The IC50 (HEPG2TOX_HILL_SLOPE 0.32, HEPG2TOX_R_SQUARED 0.345, PBLUC_HILL_SLOPE 2.6, PBLUC_R_SQUARED 0.743, read-out: LUCIFERASE INFECTION ASSAY - IC50) is 4.67 µM.
For `NC(c1ccccc1)c1csc(NC(=O)NC(c2ccccc2)c2ccccc2)n1` (configuration not stated), the IC90 was greater than 7.96 µM. For the same compound, the IC50 under setting [1] was greater than 7.96 µM.
On to `c1ccc(C2(c3ccccc3)CC2(c2ccccc2)c2ccccc2)cc1`, for which the IC90 turned out to be 8.97 µM. Further, the IC50 (FFLUC_HILL_SLOPE 10.4, FFLUC_R_SQUARED 0.239, PBLUC_HILL_SLOPE 23.3, PBLUC_R_SQUARED 0.151, read-out: LUCIFERASE INFECTION ASSAY - IC50) came out at 8.16 µM.
`Cc1ccc(-c2nnc3n2CCCCC3)cc1NC(=O)c1ccc([N+](=O)[O-])o1`: the IC90 was greater than 10 µM. The IC50 (HEPG2TOX_HILL_SLOPE 6.11, HEPG2TOX_R_SQUARED 0.316, PBLUC_HILL_SLOPE 1.35, PBLUC_R_SQUARED 0.486, read-out: LUCIFERASE INFECTION ASSAY - IC50) is 6.12 µM.
`COc1ccc(NC(=O)C(c2ccccc2)N2CCN(C)CC2)cc1Cl` (configuration not stated): the IC90 was greater than 10 µM. Besides, under setting [1], the IC50 is greater than 10 µM.
In the case of `OC[C@H]1O[C@@H](c2nc3cc(-c4nc(-c5ccccc5F)no4)ccc3[nH]2)C[C@@H]1O`, the IC90 was 2.9 µM. Also, the IC50 (PBLUC_HILL_SLOPE 37.1, PBLUC_R_SQUARED 0.287, read-out: LUCIFERASE INFECTION ASSAY - IC50) is 2.73 µM.
